# Test results published in patent US20110091540A1, “POLYMERIC COMPOSITIONS AND THEIR METHOD OF USE IN COMBINATION WITH ACTIVE AGENTS” (priority 2007, published 2011).
# Test: Clinical trial of Example 11: fecal metal excretion and stool weight
# Assay type: in vivo, human
# Settings: groups receiving mannitol with CLP; passage through the entire gastrointestinal tract
# Protocol: For this clinical trial, an open-label, non-randomized, multiple-dose study in eighteen healthy subjects divided into six groups of three subjects in each group was conducted. Subjects were placed into one of six groups on day six, based upon the previous five days of stool weights, so that the average daily stool weight is approximately equal across groups.
# CLP (milled) with and without mannitol (Groups 1, 2, 5 and 6) was in size 00 HPMC capsules that are uncoated. CLP (beads) and mannitol alone were supplied in bottles so that they may put into size 00 HPMC capsules (Groups 3 and 4).
# CLP was administered according to treatment assignment (Groups 1, 2, 3, and 4) in a fasted state, at least one hour prior to each of four meals/snack and administered with water. Subjects were restricted from additional fluids for one hour pre and post dose. For Groups 5 and 6, CLP is administered in a fed state, thirty minutes following the end of a meal and evening snack, administered with water and without any fluid restriction.
# Each sample was individually weighed and the color and consistency of the stool noted. The weights were added together to determine the total fecal weight resulting from each day's intake. The entire weight of stool between the color markers was also totaled separately for both the baseline period and the experimental period. […]
smiles,measurement,value
OC[C@@H](O)[C@@H](O)[C@H](O)[C@H](O)CO [mannitol],Effect of mannitol on fluid removal (stool weight),does not increase fluid removal and may decrease fluid removal
